Test results reported in PMC9865501, “Design and Synthesis of Scopoletin Sulfonate Derivatives as Potential Insecticidal Agents” (Molecules, 2023).
Converted amounts (≈) assume the structure as drawn. Like-named read-outs stand apart in the source and are kept apart here.

Tests used:
[1] = Toxicity to brine shrimp Artemia; format: in vivo, Artemia salina; settings: Artemia salina (brine shrimp), in vivo, other: immersion in test solution
Experimental: (§1) The toxicity of the title compounds to the brine shrimp A. salina was evaluated according to the reported method. […] Subsequently, approximately 50 hatched (10 h instar) brine shrimp were transferred into each pore of a 24-well plate filled with the test solutions. Finally, the brine shrimp were reared in an illumination incubator (28 ± 1 °C, 12 h light and 12 h dark alternatively) for 24 h. DMSO—1% Tween 20 was used as a blank control. Each treatment was conducted in triplicate. The dead insects were recorded under a stereoscope, and the corrected mortalities of A. salina treated with the compounds were calculated.

AChE = target: T1, AChE (Electrophorus electricus, UniProt O42275); assay: In vitro AChE inhibition (ELISA kit); format: biochemical, electric eels
T1 construct: purchased Sigma–Aldrich Chemie GmbH (Buchs, Switzerland)
Experimental: The effects of the title compounds on the in vitro AChE activity were evaluated using ELISA technology. AChE derived from electric eels was purchased from Sigma–Aldrich Chemie GmbH (Buchs, Switzerland). Briefly, the AChE was preincubated with different concentrations (500, 250, 125, 62.5, 31.25, 15.625, and 7.8125 μg/mL) of the compounds in PBS solution. Then, the AChE activities after incubation were measured using the corresponding ELISA kit according to the manufacturer’s instructions (Jiancheng, Nanjing, China). The detection was performed using a multifunctional microplate reader (SpectraMax® M2e, Thermo Scientific, Waltham, MA, USA).

T. cinnabarinus = assay: Acaricidal activity against T. cinnabarinus (leaf spray on broad bean, 72 h); format: in vivo, Tetranychus cinnabarinus; settings: for LC50: Tetranychus cinnabarinus; for acaricidal toxicity relative to compound 5: compared with compound 5
Experimental: An acaricidal activity assay of the test compounds against mites was conducted according to procedures outlined in the literature. […] The stock solution was then diluted to a series of working concentrations with 1% Tween 80 to obtain the test solutions. Subsequently, the leaves of two-leaf-stage broad beans were inoculated with 150–200 female adult T. cinnabarinus mites and reared in a greenhouse (26 ± 1 °C, 75–80% RH, 16 h light and 8 h dark alternatively) for 8 h. The test solution of the compound was then evenly sprayed on these leaves, which were then cultivated in the greenhouse for 72 h. In the blank control group, Tween 80 (1%) was used instead of the treatment solution. Cyetpyrafen (CAS NO. 1253429-01-4) was used as a positive control. Each treatment was repeated three times. The dead insects were recorded under a stereoscope, and the corrected mortalities of mites treated with the compounds were calculated.

A. salina = assay: Toxicity to brine shrimp Artemia; format: in vivo, Artemia salina
Experimental: as §1

[2] = read-out: Lethal activity to Artemia LC50
[3] = 12 h, read-out: Lethal activity to Artemia LC50
[4] = 72 h, Table S1, read-out: Acaricidal activity LC50
[5] = 72 h, main text and Figure 5, read-out: LC50 against T. cinnabarinus

T1 sequence (O42275 24-633): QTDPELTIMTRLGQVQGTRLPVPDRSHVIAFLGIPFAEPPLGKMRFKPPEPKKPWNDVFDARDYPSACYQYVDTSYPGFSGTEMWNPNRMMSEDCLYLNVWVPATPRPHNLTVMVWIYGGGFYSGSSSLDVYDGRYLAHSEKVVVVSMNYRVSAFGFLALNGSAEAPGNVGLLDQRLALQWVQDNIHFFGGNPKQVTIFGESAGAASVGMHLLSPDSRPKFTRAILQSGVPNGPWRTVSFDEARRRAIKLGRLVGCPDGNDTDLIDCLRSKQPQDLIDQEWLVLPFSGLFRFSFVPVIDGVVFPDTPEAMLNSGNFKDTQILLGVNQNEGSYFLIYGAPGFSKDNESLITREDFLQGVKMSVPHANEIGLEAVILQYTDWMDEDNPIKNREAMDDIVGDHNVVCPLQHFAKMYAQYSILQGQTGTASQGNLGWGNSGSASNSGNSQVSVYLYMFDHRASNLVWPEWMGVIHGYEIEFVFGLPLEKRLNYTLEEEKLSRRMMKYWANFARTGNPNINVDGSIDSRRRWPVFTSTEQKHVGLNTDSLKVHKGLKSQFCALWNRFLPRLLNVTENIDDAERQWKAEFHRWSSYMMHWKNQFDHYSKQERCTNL

SMILES | LC50 at 6 h [1, 2] | LC50 at 12 h [1, 3] | IC50 (AChE) | LC50 (T. cinnabarinus; [4]) | LC50 at 12 h ([1]; abstract (equals the 12 h value), read-out: LC50 against A. salina) | LC50 (T. cinnabarinus; [5]) | acaricidal toxicity relative to compound 5 (T. cinnabarinus) | Lethal activity to Artemia LC50 (A. salina; 6 h) | Lethal activity to Artemia LC50 (A. salina; 12 h) | AChE inhibition IC50 (AChE) | LC50 against T. cinnabarinus (T. cinnabarinus; 72 h, main text and Figure 5)
COc1cc2ccc(=O)oc2cc1O [Compound 4, 7-hydroxy-6-methoxy-2H-chromen-2-one] | 27.2 µg/mL (≈ 142 µM) | 14.2 µg/mL (≈ 73.9 µM) | 551 µM | 144 µg/mL (≈ 749 µM) | – | – | – | – | – | – | –
COc1cc2ccc(=O)oc2cc1OS(=O)(=O)c1ccccc1 [Compound 4a] | 47 µg/mL (≈ 141 µM) | 29.1 µg/mL (≈ 87.6 µM) | 431 µM | 448 µg/mL (≈ 1350 µM) | – | – | – | – | – | – | –
COc1ccc(S(=O)(=O)Oc2cc3oc(=O)ccc3cc2OC)cc1 [Compound 4b] | 38.6 µg/mL (≈ 107 µM) | 18.2 µg/mL (≈ 50.2 µM) | 304 µM | 209 µg/mL (≈ 577 µM) | – | – | – | – | – | – | –
COc1cc2ccc(=O)oc2cc1OS(=O)(=O)c1ccc(F)cc1 [Compound 4c] | 91.5 µg/mL (≈ 261 µM) | 56.3 µg/mL (≈ 161 µM) | 362 µM | 318 µg/mL (≈ 908 µM) | – | – | – | – | – | – | –
COc1cc2ccc(=O)oc2cc1OS(=O)(=O)c1ccc(Cl)cc1 [Compound 4d] | 33.6 µg/mL (≈ 91.6 µM) | 16 µg/mL (≈ 43.6 µM) | 222 µM | 529 µg/mL (≈ 1440 µM) | – | – | – | – | – | – | –
COc1cc2ccc(=O)oc2cc1OS(=O)(=O)c1ccc(Br)cc1 [Compound 4e] | 157 µg/mL (≈ 382 µM) | 89.8 µg/mL (≈ 218 µM) | 343 µM | 636 µg/mL (≈ 1550 µM) | – | – | – | – | – | – | –
COc1cc2ccc(=O)oc2cc1OS(=O)(=O)c1ccc(C(F)(F)F)cc1 [Compound 4f] | 109 µg/mL (≈ 272 µM) | 75.6 µg/mL (≈ 189 µM) | 420 µM | 441 µg/mL (≈ 1100 µM) | – | – | – | – | – | – | –
COc1cc2ccc(=O)oc2cc1OS(=O)(=O)c1ccc([N+](=O)[O-])cc1 [Compound 4g] | 46.7 µg/mL (≈ 124 µM) | 25.6 µg/mL (≈ 67.8 µM) | 353 µM | 183 µg/mL (≈ 485 µM) | – | – | – | – | – | – | –
COc1cc2ccc(=O)oc2cc1OS(=O)(=O)c1cc(Cl)c(Cl)cc1Cl [Compound 4h] | 131 µg/mL (≈ 301 µM) | 125 µg/mL (≈ 287 µM) | 421 µM | 832 µg/mL (≈ 1910 µM) | – | – | – | – | – | – | –
COc1cc2ccc(=O)oc2cc1OS(=O)(=O)c1cccs1 [Compound 4i] | 76.5 µg/mL (≈ 226 µM) | 45.1 µg/mL (≈ 133 µM) | 432 µM | 489 µg/mL (≈ 1450 µM) | – | – | – | – | – | – | –
COc1cc2ccc(=O)oc2cc1OS(=O)(=O)c1ccc2ccccc2c1 [Compound 4j] | 13.6 µg/mL (≈ 35.6 µM) | – | 148 µM | – | 9.36 µg/mL (≈ 24.5 µM) | 93 µg/mL (≈ 243 µM) | – | – | – | – | –
COc1cc2cc(-c3ccc(F)cc3)c(=O)oc2cc1OS(=O)(=O)c1ccccc1 [Compound 5a] | 95.8 µg/mL (≈ 225 µM) | 55.8 µg/mL (≈ 131 µM) | 95.2 µM | – | – | 57 µg/mL (≈ 134 µM) | approximately 2 times | – | – | – | –
COc1ccc(S(=O)(=O)Oc2cc3oc(=O)c(-c4ccc(F)cc4)cc3cc2OC)cc1 [Compound 5b] | 94.5 µg/mL (≈ 207 µM) | 36.2 µg/mL (≈ 79.3 µM) | 336 µM | 338 µg/mL (≈ 741 µM) | – | – | – | – | – | – | –
COc1cc2cc(-c3ccc(F)cc3)c(=O)oc2cc1OS(=O)(=O)c1ccc(F)cc1 [Compound 5c] | 94.7 µg/mL (≈ 213 µM) | 48.6 µg/mL (≈ 109 µM) | 192 µM | 94 µg/mL (≈ 212 µM) | – | – | – | – | – | – | –
COc1cc2cc(-c3ccc(F)cc3)c(=O)oc2cc1OS(=O)(=O)c1ccc(Cl)cc1 [Compound 5d] | 72.8 µg/mL (≈ 158 µM) | 33.7 µg/mL (≈ 73.1 µM) | 149 µM | 99 µg/mL (≈ 215 µM) | – | – | – | – | – | – | –
COc1cc2cc(-c3ccc(F)cc3)c(=O)oc2cc1OS(=O)(=O)c1ccc(Br)cc1 [Compound 5e] | 114 µg/mL (≈ 226 µM) | 79.5 µg/mL (≈ 157 µM) | 141 µM | 80 µg/mL (≈ 158 µM) | – | – | – | – | – | – | –
COc1cc2cc(-c3ccc(F)cc3)c(=O)oc2cc1OS(=O)(=O)c1ccc(C(F)(F)F)cc1 [Compound 5f] | 71.5 µg/mL (≈ 145 µM) | 39.9 µg/mL (≈ 80.7 µM) | 242 µM | 104 µg/mL (≈ 210 µM) | – | – | – | – | – | – | –
COc1cc2cc(-c3ccc(F)cc3)c(=O)oc2cc1OS(=O)(=O)c1ccc([N+](=O)[O-])cc1 [Compound 5g] | 86.6 µg/mL (≈ 184 µM) | 53.6 µg/mL (≈ 114 µM) | 261 µM | 68 µg/mL (≈ 144 µM) | – | – | approximately 2 times | – | – | – | –
COc1cc2cc(-c3ccc(F)cc3)c(=O)oc2cc1OS(=O)(=O)c1cc(Cl)c(Cl)cc1Cl [Compound 5h] | 106 µg/mL (≈ 200 µM) | 57.6 µg/mL (≈ 109 µM) | 198 µM | 96 µg/mL (≈ 181 µM) | – | – | – | – | – | – | –
COc1cc2cc(-c3ccc(F)cc3)c(=O)oc2cc1OS(=O)(=O)c1cccs1 [Compound 5i] | 99.8 µg/mL (≈ 231 µM) | 56.7 µg/mL (≈ 131 µM) | 255 µM | 73 µg/mL (≈ 169 µM) | – | – | approximately 2 times | – | – | – | –
COc1cc2cc(-c3ccc(F)cc3)c(=O)oc2cc1OS(=O)(=O)c1ccc2ccccc2c1 [Compound 5j] | 77.9 µg/mL (≈ 163 µM) | 29.7 µg/mL (≈ 62.3 µM) | 115 µM | – | – | 20 µg/mL (≈ 42 µM) | ~5 times | – | – | – | –
COc1cc2cc(C(C)=O)c(=O)oc2cc1O [Compound 6, 3-acetyl-7-hydroxy-6-methoxy-2H-chromen-2-one] | 56.5 µg/mL (≈ 241 µM) | 35.6 µg/mL (≈ 152 µM) | 395 µM | 81 µg/mL (≈ 346 µM) | – | 81 to 116 µg/mL (≈ 346 to 495 µM) | – | – | – | – | –
COc1cc2cc(C(C)=O)c(=O)oc2cc1OS(=O)(=O)c1ccc(Cl)cc1 [Compound 6d] | 45.5 µg/mL (≈ 111 µM) | 27.9 µg/mL (≈ 68.2 µM) | 355 µM | 159 µg/mL (≈ 389 µM) | – | – | – | – | – | – | –
COc1cc2cc(C(C)=O)c(=O)oc2cc1OS(=O)(=O)c1cc(Cl)c(Cl)cc1Cl [Compound 6h] | 48.5 µg/mL (≈ 102 µM) | 33.9 µg/mL (≈ 71 µM) | 275 µM | 107 µg/mL (≈ 224 µM) | – | – | – | – | – | – | –
COc1cc2cc(C(=O)Nc3ccc(Br)cc3)c(=O)oc2cc1O [Compound 7, 3-(4-bromoaniline formyl)-7-hydroxy-6-methoxy-2H-chromen-2-one] | 52.3 µg/mL (≈ 134 µM) | 32.3 µg/mL (≈ 82.8 µM) | 197 µM | 82 µg/mL (≈ 210 µM) | – | 81 to 116 µg/mL (≈ 208 to 297 µM) | – | – | – | – | –
COc1cc2cc(C(=O)Nc3ccc(Br)cc3)c(=O)oc2cc1OS(=O)(=O)c1ccccc1 [Compound 7a] | 57.6 µg/mL (≈ 109 µM) | 33.6 µg/mL (≈ 63.4 µM) | 221 µM | 117 µg/mL (≈ 221 µM) | – | – | – | – | – | – | –
COc1cc2cc(C(=O)Nc3ccc(Br)cc3)c(=O)oc2cc1OS(=O)(=O)c1ccc(Cl)cc1 [Compound 7d] | 54.2 µg/mL (≈ 96 µM) | 39.4 µg/mL (≈ 69.8 µM) | 174 µM | 89 µg/mL (≈ 158 µM) | – | – | – | – | – | – | –
CCn1nc(C)cc1/C(OC(=O)C(C)(C)C)=C(/C#N)c1ccc(C(C)(C)C)cc1 [Cyetpyrafen, reference compound] | – | – | – | – | – | – | – | 11.7 µg/mL | 6.13 µg/mL | 14.06 ± 10.20 µg/mL | 15.0 µg/mL (≈ 38.1 µM)
